Laboratory results: patent US7098234B2, “Indole derivatives, process for preparation of the same and use thereof” (Ono Pharmaceutical Co., Ltd., priority 2000, dated 2006)

What was measured:
[1] = molecular target: T1, mouse DP receptor (Mus musculus, UniProt P70263); assay: Receptor binding test using prostanoid DP receptor-expressing cells (3H-PGD2 binding inhibition); details: CHO cell membranes expressing mouse DP receptor; 3H-PGD2 2.5 nmol/L; Ki=IC50/(1+([L]*/Kd))
T1 construct: expressed in transfected cells; host or cells: CHO cells (membrane fraction)
T1 sequence (P70263 1-357): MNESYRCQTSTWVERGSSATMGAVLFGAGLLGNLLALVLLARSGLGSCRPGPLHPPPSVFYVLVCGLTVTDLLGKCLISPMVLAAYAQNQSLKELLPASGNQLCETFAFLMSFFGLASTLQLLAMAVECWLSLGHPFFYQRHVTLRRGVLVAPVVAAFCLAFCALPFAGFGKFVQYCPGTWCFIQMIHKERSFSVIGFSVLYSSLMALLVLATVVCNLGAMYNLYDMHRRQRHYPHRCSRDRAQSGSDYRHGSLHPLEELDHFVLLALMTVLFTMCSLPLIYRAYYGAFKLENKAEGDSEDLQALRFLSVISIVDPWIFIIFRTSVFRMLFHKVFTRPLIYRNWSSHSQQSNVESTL
Description: The compound of the present invention represented by formula (I) potently binds to a DP receptor and show an antagonistic activity. For example, in a laboratory test, such effects were confirmed by the following receptor binding test using prostanoid receptor-expressing cells. • (i) Receptor binding test using prostanoid DP receptor-expressing cells
CHO cells expressing a mouse DP receptor was prepared according to the method of Hirata et al. (Proc. Natl. Acad. Sci., 91, 11192–11196 (1994)) and used as a membrane standard.
A reaction solution (200 μL) containing the prepared membrane standard (30–166 μg) and ^3H-PGD2 was incubated at room temperature for 20 minutes. The reaction was stopped with an ice-cold buffer (1 mL) and the binding ^3H-PGD2 was trapped in on a glass filter by immediate aspiration-filtration under a reduced pressure, and its binding radioactivity was measured using a liquid scintillation counter.
A Kd value and a Bmax value were obtained from Scatchard plots (Ann. N.Y. Acad. Sci., 51, 660 (1949)). Non-specific binding was obtained as the binding radioactivity in the presence of unlabeled PGD2 at an excess amount (10 μmol/L). ^3H-PGD2 binding inhibition by the compound of the present invention was measured by adding ^3H-PGD2 (2.5 nmol/L) and the compound of the present invention as various concentrations. Also, the following buffers were used for the reactions. […]

[2] = molecular target: T1, mouse DP receptor; assay: DP antagonistic activity assay using prostanoid DP receptor-expressing cells (cAMP production by PGD2); format: cell-based; details: CHO cells expressing mouse DP receptor; inhibition of cAMP production by PGD2 at 100 nM
Description: As shown in the above results, it is apparent that the compound of the present invention potently binds to a DP receptor. • (ii) DP antagonistic activity assay using prostanoid DP receptor-expressing cells
CHO cells expressing a mouse DP receptor were prepared according to the method of Nishigaki et al. (FEBS lett., 364, 339–341 (1995)), inoculated onto a 24-well microplate at 10^5 cells/well, followed by culturing for 2 days, and used for the assay. Each well was washed with 500 μL of MEM (minimum essential medium), and 450 μL of assay medium (MEM containing 1 mmol/L IBMX and 0.1 or 1% BSA), followed by incubation at 37° C. for 10 minutes. Then, an assay medium (50 μL) containing PGD2 alone or PGD2 with a test compound was added thereto to start the reaction, and after the reaction at 37° C. for 10 minutes, 500 μL of ice-cold trichloroacetatic acid (TCA) (10% w/v) was added thereto to stop the reaction. The reaction solution was frozen once (−80° C.) and thawed, and cells were peeled using a scraper, followed by centrifugation at 13,000 rpm for 3 minutes. The cAMP concentration was measured with a cAMP assay kit using the resulting supernatant. […] Trichloro acetic acid (TCA) was extracted to the chloroform layer and removed, the cAMP amount in a sample was determined using the aqueous layer as the sample according to the method described in the [^125I]cAMP assay kit. […]

Cc1cc2c(CC(=O)O)cccc2n1C(=O)c1ccc(OCCc2ccccc2)cc1 [1(3)]
Ki [1]: 1.8 nM | IC50 [2]: 120 nM

CCCCCOc1ccc(C(=O)n2c(C)cc3c(CC(=O)O)cccc32)cc1 [1(4), 1-(4-Pentyloxybenzoyl)-2-methylindole-4-acetic acid]
Ki [1]: 4.3 nM
